Broadly, the CC50 is the concentration at which the toxic effect on the cells reaches its halfway point. In general, IC50 refers to the point on the concentration scale where inhibition reaches its midpoint. A lower IC50 goes with inhibition by little substance. The term hepatocyte CLint denotes the capacity of the preparation to metabolise the compound, expressed as a volume cleared per time. Lower therefore signals slow turnover.

Series [1] can be described thus: In vitro cytotoxicity assay. It is filed as cell-based. The note with it: mouse, 3T3 mouse embryo fibroblasts.
For series [2], the target named is complex III of L. donovani (Leishmania donovani, UniProt A5HU08). Nature of the series: Complex III assay in mitochondria-enriched cell lysates.
Method: Measurement of complex III activity and inhibition were performed as described previously ([6]).
The nature of series [3]: In vitro metabolism, cryopreserved hepatocytes. The series is classed as in vitro ADME, dog. How it is done:
Cell viability was determined using trypan blue exclusion. The incubation was performed on a plate shaker (Heidolph Titrimax 100, 900 rpm) placed in a humidified incubator (37°C, 7.5% CO2) for 240 min. The reaction was initiated with the addition of compound with samples taken periodically and quenched with the addition of acetonitrile containing internal standards (metolazone and diazepam). Quenched samples were maintained on ice for approximately 20-30 min, centrifuged (for 5 min) and the supernatant analyzed by LC-MS.
In vitro intrinsic clearance (CLint, μL/min/mg or μL/min/10^6 cells) values were calculated from the apparent first order degradation rate constant divided by the microsome concentration or the hepatocyte cell number (10^6 viable cells/mL). In vitro CLint values were then divided by the fraction unbound in the in vitro test system (to give CLint,u) and scaled to in vivo values (mL/min/kg) using published physiological scaling factors ([28]). Blood clearance in each species was then calculated using the well-stirred model of hepatic extraction (equation 2) where Q is the hepatic blood flow and fu,blood is calculated from fu,plasma/B:P: [2] PredictedCLblood=Q x fu,blood x CLint,u/Q+fu,blood x CLint,u
Blood clearance values were converted to plasma clearance by multiplying by the B:P.

Sequence of complex III of L. donovani (A5HU08 1-290): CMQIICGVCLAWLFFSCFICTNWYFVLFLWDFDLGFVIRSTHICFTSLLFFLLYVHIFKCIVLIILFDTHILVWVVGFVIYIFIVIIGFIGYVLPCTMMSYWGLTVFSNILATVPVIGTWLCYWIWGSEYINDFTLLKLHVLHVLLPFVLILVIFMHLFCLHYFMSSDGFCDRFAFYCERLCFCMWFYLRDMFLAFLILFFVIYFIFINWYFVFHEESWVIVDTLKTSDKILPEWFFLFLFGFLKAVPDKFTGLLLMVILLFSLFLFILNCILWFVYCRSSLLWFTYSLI
Sequence of complex III of L. donovani (A0A3S7WPP0 1-258 partner): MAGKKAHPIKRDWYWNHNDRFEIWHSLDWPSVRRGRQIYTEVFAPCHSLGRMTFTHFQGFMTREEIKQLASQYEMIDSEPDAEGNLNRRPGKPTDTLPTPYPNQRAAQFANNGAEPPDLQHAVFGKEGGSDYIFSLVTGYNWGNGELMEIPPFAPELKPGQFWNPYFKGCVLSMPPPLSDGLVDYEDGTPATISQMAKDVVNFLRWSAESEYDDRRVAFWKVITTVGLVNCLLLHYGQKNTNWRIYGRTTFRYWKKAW

In turn, `Cc1[nH]c2nc(N)nc(C)c2c1-c1ccc(C#N)c2c1OCO2` [DNDI-6174] returned a CC50 in series [1] of over 37000 nM. For the same compound, the IC50 in series [2] (lysates from axenic amastigote stage) is 2 ± 0.5 nM; in series [2] (lysates from promastigote stage) it was 8 ± 1.7 nM. Further, the “Hepatocyte predicted in vivo CLplasma” value in series [3] (Dog) is recorded as 0.30 mL/min/kg. The compound further gave an intrinsic clearance (hepatocyte CLint) at 0.5 µM in series [3] (dog, cryopreserved hepatocytes) of 1 ± 0.27 µL/min/1e6 cells.

The record behind these values is publication PMC7615677 (Science translational medicine, 2023).
